Patent US10093675B2, “6,8-disubstituted-9-(heterocyclyl)purines, compositions containing these derivatives and their use in cosmetic and medicinal applications” (USTAV EXPERIMENTALNI BOTANIKY AV CR, V.V.I., priority 2014, dated 2018)
Read-outs that look alike come from different tables or passages of the source.

Legend:
[1] = test system: cytokinin-dependent tobacco callus Nicotiana tabacum L. cv. Wisconsin 38; experiment: Plant cell division: growth of cytokinin-dependent tobacco callus; type: cell-based; settings: for Activity (%); (s.d.): relative activity at concentration with highest activity, 10^−6 M kinetin set at 100%
Procedure: Cytokinin-dependent tobacco callus Nicotiana tabacum L. cv. Wisconsin 38 was maintained at 25° C. in darkness on modified MS medium, containing 4 μmol/l nicotinic acid, 2.4 μmol/l pyridoxine hydrochloride, 1.2 μmol/l thiamine, 26.6 μmol/l glycine, 1.37 μmol/l glutamine, 1.8 μmol/l myo-inositol, 30 g/l of sucrose, 8 g/l of agar, 5.37 μmol/l NAA and 0.5 μmol/l BAP. Subcultivation was carried out every three weeks. Fourteen days before the bioassay, the callus tissue was transferred to the media without BAP. Biological activity was determined from the increase in fresh callus weight after four weeks of cultivation. Five replicates were prepared for each cytokinin concentration and the entire test was repeated twice. From the obtained data, the concentration with highest activity was selected for each compound tested. Relative activity at this concentration was calculated (see Table 17 below). The activity obtained for 10^−6 M kinetin (Kin) was set as 100%.
The cytokinins to be tested were dissolved in dimethylsulfoxide (DMSO) and the solution brought up to 10^−3M with distilled water.

[2] = test system: normal diploid fibroblasts BJ; experiment: In vitro cytotoxic activity (Calcein AM), BJ; type: cell-based, human; settings: 72 hours, read-out: Cell line tested/IC50 (μmol/L) BJ
Source text: (§1) Because toxic compounds negatively influence metabolic processes of cells, many standard cytotoxicity assays are based on measurement of metabolisation rate of various artificial substrates. Resulting product is then quantified, for example, by means of spectrometry. The assays can be easily modified for use in 96-well plates. For evaluation of cytotoxicity of the […] of this invention, a microtiter assay based on quantification of metabolisation of Calcein AM was used. The assay is widely used in drug screening programs and in chemosensitivity testing. In live cells, Calcein AM is enzymatically hydrolysed and accumulation of resulting calcein is manifested by green fluorescence.
(§2) The following human cell lines were used for routine screening of the compounds: normal diploid fibroblasts BJ, T-lymphoblastic leukemia cell line CEM, promyelocytic leukemia cell line HL-60, erytroid leukemia cell line K-562, breast carcinoma cell line MCF-7, osteosarcoma cell line HOS and melanoma cell line G-361. The cells were maintained in Nunc/Corning 80 cm^2 plastic tissue culture flasks and cultured in cell culture medium (DMEM with 5 g/l glucose, 2 mM glutamine, 100 U/ml penicillin, 100 mmg/ml streptomycin, 10% fetal calf serum and sodium bicarbonate). The cell suspensions were prepared and diluted according to the particular cell type and the expected target cell density (2.500-30.000 cells per well based on cell growth characteristics) and pipetted (80 μl) into 96-well plates. Inoculates were allowed a pre-incubation period of 24 hours at 37° C. and 5% CO2 for stabilization. Tested compound was added in total volume of 20 μl of water at time zero. Usually, test compound was evaluated at six 3-fold dilutions. In routine testing, the highest concentration tested was 100 μM, but it could have been adjusted because of limited solubility of a compound. All drug concentrations were tested in triplicates.
(§3) Incubations of cells with the test compounds lasted for 72 hours at 37° C., in 5% CO2 atmosphere and 100% humidity. At the end of incubation period Calcein AM in PBS was added into final concentration of 1 μg/ml. After another 1 hour of incubation fluorescence (FD) was measured with the Labsystem FIA Reader Fluoroscan Ascent (UK). Growth inhibition (GI) was estimated using the following equitation: GI=(mean FDdrug exposed wells−mean FDblank)/(mean FDcontrol wells−mean FDblank)×100%. The GI50 value, the drug concentration causing 50% reduction of Calcein AM conversion, was calculated from the obtained dose response curves.

[3] = test system: T-lymphoblastic leukemia cell line CEM; experiment: In vitro cytotoxic activity (Calcein AM), CEM; type: cell-based, human; settings: 72 hours, read-out: Cell line tested/IC50 (μmol/L) CEM
Source text: as §1, §2, §3

[4] = test system: erytroid leukemia cell line K-562; experiment: In vitro cytotoxic activity (Calcein AM), K-562; type: cell-based, human; settings: read-out: Cell line tested/IC50 (μmol/L) K-562
Source text: as §1, §2, §3

[5] = test system: breast carcinoma cell line MCF-7; experiment: In vitro cytotoxic activity (Calcein AM), MCF-7; type: cell-based, human; settings: read-out: Cell line tested/IC50 (μmol/L) MCF7
Source text: as §1, §2, §3

[6] = test system: osteosarcoma cell line HOS; experiment: In vitro cytotoxic activity (Calcein AM), HOS; type: cell-based, human; settings: 72 hours, read-out: Cell line tested/IC50 (μmol/L) HOS
Source text: as §1, §2, §3

[7] = test system: melanoma cell line G-361; experiment: In vitro cytotoxic activity (Calcein AM), G-361; type: cell-based, human; settings: read-out: Cell line tested/IC50 (μmol/L) G-361
Source text: as §1, §2, §3

[8] = test system: Human diploid fibroblast BJ; experiment: In vitro cytotoxic activity (MTT); type: cell-based; settings: 72 hours incubation; concentration causing 20% decrease in mitochondrial dehydrogenase activity
Procedure: MTT (metabolic tetrazolium toxicity) assay is a standard colorimetric assay for evaluation of cytotoxicity. Mitochondrial dehydrogenase activity converts yellow MTT into violet formazan which is measured by means of spectrometry.
Human diploid fibroblast BJ (passage 18-22) were seeded into 96-well plate (5.000 cells per well). After 6 hours cultivation medium (DMEM with 5 g/l glucose, 2 mM glutamine, 100 U/ml penicillin, 100 mmg/ml streptomycin, 10% fetal calf serum and sodium bicarbonate) was replaced with the cultivation medium containing test compounds in concentration range of 0-200 µM. Highest concentration was adjusted if the solubility of the compound was limiting. Every concentration was tested in pentaplicate. MTT was added to the cells after 72 hours incubation (final concentration 0.5 mg/ml) and incubation continued for another 3 hours. MTT was solubilised by DMSO and absorbance at 570 nm was measured. Growth inhibition (GI) was estimated using the following equitation: GI=(mean A drug exposed wells−mean Ablank/mean Acontrol wells−mean Ablank)×100%. The GI20 value, the drug concentration causing 20% decrease in mitochondrial dehydrogenase activity, was calculated from the obtained dose response curves.

[9] = test system: detached leaves of Triticum aestivum cv. Hereward; experiment: Membrane lipid peroxidation (MDA, TBA method) in detached wheat leaves during dark senescence; type: in vivo; settings: four days in the dark, Control 18.9 (±2.2)
Procedure: A typical symptom associated with senescence as a direct consequence of increased reactive oxygen species is lipid peroxidation. Therefore the levels of MDA, a decomposition product of lipid peroxidation, were measured in detached wheat leaves that were exposed to the prepared novel derivatives and kinetin for four days in the dark as described in Example 8. MDA levels were measured using a thiobarbituric acid (TBA) method. In detail, 100 mg of fresh plant material was homogenized by high speed shaking in a ball mill (MM301, Retsch, Germany) with 1 mL of 80% methanol. The crude extract was centrifuged at 10,000×g for 5 min, and 100 μL aliquot of supernatant was vortexed with 100 μL of 0.5% (w/v) TBA containing 0.1% (w/v) trichloroacetic acid, and the resulting solution was then incubated for 30 min at 95° C. The samples were quickly cooled on ice and recentrifuged for 5 min at 1000×g. The absorbance of supernatant was measured at 532 nm with background subtraction at 600 nm and the amount of MDA-TBA complex was calculated from the coefficient of absorbance 155 mM^−1cm^−1.
(§4) Seeds of winter wheat, Triticum aestivum cv. Hereward, were washed under running water for 24 hours and then sown on vermiculite soaked with Knop's solution. They were placed in the grown chamber at 25° C. with a 16/8 hours light period at […]. After 7 days, the first leaf was fully developed and the second leaf had started to grow. A tip section of the first leaf, approximately 35 mm long, was removed from 5 seedlings and trimmed slightly to a combined weight of 100 mg. The basal ends of the five leaf tips were placed in the wells of a microtiter polystyrene plate containing […] of a cytokinin solution each. The entire plate was inserted into a plastic box lined with paper tissues soaked in distilled water to prevent leaf sections from drying out. After 96 hours incubation in the dark at 25° C., the leaves were removed and chlorophyll extracted by heating at 80 C for 10 min in 5 ml of 80% ethanol (v/v). The sample volume was then restored to 5 ml by the addition of 80% ethanol (v/v). The absorbance of the extract was recorded at 665 nm. In addition, chlorophyll extracts from fresh leaves and leaf tips incubated in deionized water were measured. From the obtained data, the concentration with highest activity was selected for each compound tested. Relative activity of the compound at this concentration was calculated (see Table 6 below). The activity obtained for 10^−4 M kinetin (Kin) was set as 100%. The values shown are means of five replicates and the whole experiment was repeated twice.

[10] = test system: excised wheat leaf tips (Triticum aestivum cv. Hereward); experiment: Senescence inhibition on winter wheat leaf segments (retention of chlorophyll); type: in vivo; settings: 10^−4 mol/L; 96 hours in the dark; activity of kinetin set at 100%
Procedure: as §4
The compounds to be tested were dissolved in dimethylsulfoxide (DMSO) and the solution brought up to 10^−3 M with distilled water. […] As summarized in Table 6 below, the presence of C-8 substitutent was beneficial and led to increase of antisenescent properties.

[11] = test system: human diploid fibroblasts (HDF cells; HDF25, HDF45, HDF80); experiment: Inhibition of human cell aging: senescent cells by beta-galactosidase staining; type: cell-based; settings: for SENESCENT CELLS (%) HDF25: human diploid fibroblasts passage 25, beta-galactosidase staining; for SENESCENT CELLS (%) HDF45: human diploid fibroblasts passage 45, beta-galactosidase staining; for SENESCENT CELLS (%) HDF80: human diploid fibroblasts passage 80, beta-galactosidase staining
Procedure: In this example, human diploid fibroblasts (HDF cells of various passage levels: passage 25—designated HDF25; passage 45—designated HDF45; passage 80—designated HDF80) were stained for beta-galactosidase activity. The medium used for the cell cultivation was removed the cells were washed twice in […], and fixed in 2-3 ml of fixing solution comprised of a 2% formaldehyde and 0.2% glutaraldehyde in PBS. The cells were incubated at room temperature for 5 minutes, and then washed twice with PBS. The cells were subsequently incubated at 37° C. […] In this experiment, senescent cells, but no other cells were stained blue due to the action of beta-galactosidase on the substrate.

[12] = test system: Salmonella typhimurium histidien auxotrophs TA98 and TA100; experiment: Ames test; type: cell-based; settings: 2.5 to 5000 μg/plate; presence and absence of Aroclor-induced rat liver S9
Procedure: A number of tests related to the safety of have been carried out using conventionally accepted protocols and procedures. The results of these studies are summarized herein. Tests were carried out using DMSO as solvent and dose levels of compound 21, 24, 26, 27, 39, 41, 45, 48, 50, 52, 53, 54, 55, 56, 63, 64, 66, 67, 68, 69, 70, 71, 72, 74, 76, 124, 125, 126, 127, 128, 129, 130, 145, 146, 147, 149, 150, 151, 208, 216, 218 a 243 at 2.5, 5.0, 15, 50, 500, 1500, and 5000 μg/plate based upon standard protocol and procedures (Ames et al., Mutation Research, 31, 347-364 (1975); Maron et al., Mutation Research, 113, 173-215 (1983)).

Row | SMILES | Activity (%); (s.d.) [1] | IC50 ([2]; Homo sapiens, Fibroblast) | IC50 ([3]; Homo sapiens) | IC50 ([4]; Homo sapiens, K562, 72 hours) | IC50 ([5]; Homo sapiens, MCF7, 72 hours) | IC50 ([6]; Homo sapiens) | IC50 ([7]; Homo sapiens, G-361, 72 hours) | GI20 [8] | MDA (nmol/g FW) [9] | Activity (%) (s.d.), retention of chlorophyll [10] | SENESCENT CELLS (%) HDF25 [11] | SENESCENT CELLS (%) HDF45 [11] | SENESCENT CELLS (%) HDF80 [11] | mutagenic response [12] | other results
1 | CC(C)=CCNc1ncnc2c1nc(Cl)n2C1CCCCO1 (stereo not shown) [Compound 3, 8-Chloro-6-(3-methylbut-2-en-1-ylamino)-9-(tetrahydropyran-2-yl)-9H-purine] | 118 (±6) % | > 50 µmol/L | > 50 µmol/L | > 50 µmol/L | > 50 µmol/L | > 50 µmol/L | > 50 µmol/L | >50 µM |  |  |  |  |  |  | 
2 | Brc1nc2c(NCc3ccco3)ncnc2n1C1CCCCO1 (stereo not shown) [Compound 21, 8-Bromo-6-furfurylamino-9-(tetrahydropyran-2-yl)-9H-purine] |  |  |  |  |  |  |  |  | 12.1 (±1.2) nmol/g FW | 108 (±3) % | 3% | 5% | 20% | no positive mutagenic responses | 
3 | CC(C)=CCNc1ncnc2c1nc(Br)n2C1CCCCO1 (stereo not shown) [Compound 23, 8-Bromo-6-(3-methylbut-2-en-1-ylamino)-9-(tetrahydropyran-2-yl)-9H-purine] | 125 (±7) % | > 50 µmol/L | > 50 µmol/L | > 50 µmol/L | > 50 µmol/L | > 50 µmol/L | > 50 µmol/L | >100 µM |  |  |  |  |  |  | 
4 | Oc1ccc(CNc2ncnc3c2nc(Br)n3C2CCCCO2)cc1O (stereo not shown) [Compound 39] |  |  |  |  |  |  |  |  | 11.6 (±1.2) nmol/g FW | 128 (±3) % | 3% | 4% | 20% | no positive mutagenic responses | 
5 | CC(C)=CCNc1ncnc2c1nc(Cl)n2C1CCCO1 (stereo not shown) [Compound 65] | 127 (±9) % |  |  |  |  |  |  | >100 µM |  |  |  |  |  |  | Concentration with highest activity (mol/l) ([1]; tobacco callus fresh weight increase after four weeks, tested 10^−8 M to 10^−4 M): 10^−6-10^−4 mol/l; IC50 [2]: > 50 µmol/L; IC50 [3]: > 50 µmol/L; IC50 ([4]; 72 hours): > 50 µmol/L; IC50 ([5]; 72 hours): > 50 µmol/L; IC50 [6]: > 50 µmol/L; IC50 ([7]; 72 hours): > 50 µmol/L
